{"source": "patent US20090215627A1", "about": "“Crystal Structure of Biotin Carboxylase (Bc) Domain of Acetyl-Coenzyme a Carboxylase and Methods of Use Thereof” (priority 2004, published 2009)", "key": {"[1]": {"conditions": "literature SAR, in words; cited from earlier work"}, "[2]": {"target": "T1, F510I mutant yeast BC domain (Saccharomyces cerevisiae, UniProt Q00955, F510I)", "T1 construct": "Residues 2-581 of yeast ACC were sub-cloned into the pET28a vector; made in house; host or cells: E. coli", "T1 sequence (Q00955 2-581 F510I)": "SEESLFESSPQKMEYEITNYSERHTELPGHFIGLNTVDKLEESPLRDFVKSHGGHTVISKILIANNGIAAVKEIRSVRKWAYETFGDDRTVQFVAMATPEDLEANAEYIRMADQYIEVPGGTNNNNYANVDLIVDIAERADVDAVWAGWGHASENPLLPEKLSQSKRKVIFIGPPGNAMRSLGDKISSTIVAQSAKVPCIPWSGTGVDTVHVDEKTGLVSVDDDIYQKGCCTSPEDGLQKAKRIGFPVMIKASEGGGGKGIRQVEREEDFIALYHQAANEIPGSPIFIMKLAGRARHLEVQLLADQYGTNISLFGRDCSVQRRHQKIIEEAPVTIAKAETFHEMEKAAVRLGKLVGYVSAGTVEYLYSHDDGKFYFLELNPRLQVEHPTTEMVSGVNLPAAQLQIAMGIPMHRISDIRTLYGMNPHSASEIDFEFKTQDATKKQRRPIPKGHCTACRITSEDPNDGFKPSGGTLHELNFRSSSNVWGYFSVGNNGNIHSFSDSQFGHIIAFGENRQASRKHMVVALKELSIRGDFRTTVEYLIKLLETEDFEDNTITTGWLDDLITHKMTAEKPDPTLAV", "test": "radioactive binding assay, F510I mutant", "conditions": "read-out: Kd (nM) (radiactive assay)", "protocol": "(§1) The mutants were designed based on the structural information and made with the QuikChange kit (Stratagene). The mutants were sequenced, expressed in E. coli, and purified following the same protocol as that for the wild-type BC domain. The affinity of soraphen for the mutants were assessed using a radioactive binding assay (Weatherly et al., supra (2004))."}, "[3]": {"target": "T2, N485G mutant yeast BC domain (Saccharomyces cerevisiae, UniProt Q00955, N485G)", "T2 construct": "Residues 2-581 of yeast ACC were sub-cloned into the pET28a vector; made in house; host or cells: E. coli", "T2 sequence (Q00955 2-581 N485G)": "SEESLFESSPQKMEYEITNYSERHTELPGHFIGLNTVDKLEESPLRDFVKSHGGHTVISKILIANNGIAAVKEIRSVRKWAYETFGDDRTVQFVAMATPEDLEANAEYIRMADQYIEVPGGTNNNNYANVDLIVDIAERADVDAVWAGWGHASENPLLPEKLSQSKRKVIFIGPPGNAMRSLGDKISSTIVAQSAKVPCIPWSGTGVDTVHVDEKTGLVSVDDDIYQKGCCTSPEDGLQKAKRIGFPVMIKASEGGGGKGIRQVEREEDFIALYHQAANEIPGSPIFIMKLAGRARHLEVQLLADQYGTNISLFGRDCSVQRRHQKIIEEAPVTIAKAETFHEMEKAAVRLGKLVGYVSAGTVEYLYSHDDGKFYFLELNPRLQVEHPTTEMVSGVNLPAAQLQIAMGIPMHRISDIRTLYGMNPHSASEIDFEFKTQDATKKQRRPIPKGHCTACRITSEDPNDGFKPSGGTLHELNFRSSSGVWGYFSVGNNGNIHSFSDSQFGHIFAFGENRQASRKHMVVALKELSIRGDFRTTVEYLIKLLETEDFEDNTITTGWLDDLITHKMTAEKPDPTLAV", "test": "fluorescence-based binding assay, N485G mutant", "conditions": "50 nM enzyme", "protocol": "(§2) We have developed a fluorescence-based binding assay using our structural information, which monitored the increase in Trp emission upon soraphen binding. The binding buffer initially contained 100 mM Tris (pH 8.0), 100 mM NaCl, and 50 nM wild-type or mutant enzyme, and increasing concentrations of soraphen A was titrated into the solution. The observed binding curve is fitted using conventional methods or the tight-binding model where appropriate.\n(§3) We next developed a fluorescence-based binding assay using the structural information. […] There is also a slight blue shift in the fluorescence emission maximum upon soraphen binding. The observed increase in Trp fluorescence as a function of soraphen concentration can be easily fit to a one-site binding model (FIG. 5), confirming that there is a single binding site for soraphen in the BC domain. The binding affinity obtained from this fluorescence assay is generally in good agreement with that based on the radioactive binding assay (Table 3) (Weatherly et al., supra (2004)). Compared to the radioactive assay, the fluorescence assay has the advantage that it can measure affinity between 1 nM to 10 μM, whereas the radioactive assay is limited to Kd values […] ˜50 nM."}, "[4]": {"target": "T3, K73R mutant yeast BC domain (Saccharomyces cerevisiae, UniProt Q00955, K73R)", "T3 construct": "Residues 2-581 of yeast ACC were sub-cloned into the pET28a vector; made in house; host or cells: E. coli", "T3 sequence (Q00955 2-581 K73R)": "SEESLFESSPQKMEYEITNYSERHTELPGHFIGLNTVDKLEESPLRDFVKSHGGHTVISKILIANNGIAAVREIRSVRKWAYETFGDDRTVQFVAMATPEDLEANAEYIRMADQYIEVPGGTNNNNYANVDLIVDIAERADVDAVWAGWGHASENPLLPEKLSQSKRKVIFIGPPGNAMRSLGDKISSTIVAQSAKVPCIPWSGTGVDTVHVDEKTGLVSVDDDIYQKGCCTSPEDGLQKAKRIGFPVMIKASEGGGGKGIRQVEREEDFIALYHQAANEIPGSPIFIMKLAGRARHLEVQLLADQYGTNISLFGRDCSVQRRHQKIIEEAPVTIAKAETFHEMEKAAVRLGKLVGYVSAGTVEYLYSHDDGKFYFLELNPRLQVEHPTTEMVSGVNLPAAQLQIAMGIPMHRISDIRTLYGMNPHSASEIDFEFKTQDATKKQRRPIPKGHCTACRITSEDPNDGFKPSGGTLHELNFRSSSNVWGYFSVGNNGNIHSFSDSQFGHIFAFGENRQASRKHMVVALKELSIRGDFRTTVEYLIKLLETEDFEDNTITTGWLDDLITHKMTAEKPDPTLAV", "test": "radioactive binding assay, K73R mutant", "conditions": "up to 60 nM soraphen A, 10 nM protein, read-out: Kd (nM) (radiactive assay)", "protocol": "as §1"}, "ACC": {"test_system": "ACC", "conditions": "kinetic data, literature; cited from earlier work"}, "[5]": {"target": "T4, Wild-type yeast BC domain (Saccharomyces cerevisiae, UniProt Q00955)", "T4 construct": "Residues 2-581 of yeast ACC were sub-cloned into the pET28a vector; made in house; host or cells: E. coli BL21(DE3) Rosetta", "T4 sequence (Q00955 2-581)": "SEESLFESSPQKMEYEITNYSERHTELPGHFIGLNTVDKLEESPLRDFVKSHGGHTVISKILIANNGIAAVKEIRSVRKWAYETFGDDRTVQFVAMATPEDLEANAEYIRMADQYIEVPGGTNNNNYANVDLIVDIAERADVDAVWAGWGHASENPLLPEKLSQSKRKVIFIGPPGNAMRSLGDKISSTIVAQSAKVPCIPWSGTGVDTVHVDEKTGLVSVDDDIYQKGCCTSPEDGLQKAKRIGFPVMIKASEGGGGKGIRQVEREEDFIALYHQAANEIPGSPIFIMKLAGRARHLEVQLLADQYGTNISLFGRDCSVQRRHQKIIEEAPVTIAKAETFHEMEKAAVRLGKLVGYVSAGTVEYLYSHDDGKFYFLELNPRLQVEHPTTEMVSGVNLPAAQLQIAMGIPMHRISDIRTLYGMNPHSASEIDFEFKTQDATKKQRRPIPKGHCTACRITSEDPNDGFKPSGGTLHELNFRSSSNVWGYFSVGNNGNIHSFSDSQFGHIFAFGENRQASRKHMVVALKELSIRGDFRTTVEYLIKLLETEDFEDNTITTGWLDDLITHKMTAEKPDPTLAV", "test": "radioactive binding assay, wild-type yeast BC domain", "conditions": "read-out: Kd (nM) (radiactive assay)", "protocol": "as §1"}, "[6]": {"target": "T3, K73R mutant yeast BC domain", "test": "fluorescence-based binding assay, K73R mutant", "protocol": "as §2, §3"}, "[7]": {"target": "T4, Wild-type yeast BC domain", "test": "fluorescence-based binding assay (Trp emission), wild-type", "conditions": "50 nM enzyme", "protocol": "as §2, §3"}, "[8]": {"target": "T2, N485G mutant yeast BC domain", "test": "radioactive binding assay, N485G mutant", "conditions": "read-out: Kd (nM) (radiactive assay)", "protocol": "as §1"}, "[9]": {"target": "T5, W487R mutant yeast BC domain (Saccharomyces cerevisiae, UniProt Q00955, W487R)", "T5 construct": "Residues 2-581 of yeast ACC were sub-cloned into the pET28a vector; made in house; host or cells: E. coli", "T5 sequence (Q00955 2-581 W487R)": "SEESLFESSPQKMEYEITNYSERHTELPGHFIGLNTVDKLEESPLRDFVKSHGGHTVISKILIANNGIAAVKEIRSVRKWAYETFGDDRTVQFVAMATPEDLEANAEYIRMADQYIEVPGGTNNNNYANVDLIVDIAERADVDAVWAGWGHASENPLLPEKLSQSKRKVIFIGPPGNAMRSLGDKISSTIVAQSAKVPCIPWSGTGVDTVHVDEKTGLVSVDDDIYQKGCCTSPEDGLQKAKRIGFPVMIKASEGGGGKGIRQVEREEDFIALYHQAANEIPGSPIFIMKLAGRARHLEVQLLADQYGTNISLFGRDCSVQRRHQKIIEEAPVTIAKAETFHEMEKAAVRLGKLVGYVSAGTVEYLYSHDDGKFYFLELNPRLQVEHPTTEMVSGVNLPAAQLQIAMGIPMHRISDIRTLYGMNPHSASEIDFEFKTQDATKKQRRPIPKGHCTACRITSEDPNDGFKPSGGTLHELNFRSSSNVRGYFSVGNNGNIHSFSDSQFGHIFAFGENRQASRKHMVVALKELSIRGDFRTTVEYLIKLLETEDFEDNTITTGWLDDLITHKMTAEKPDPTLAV", "test": "fluorescence-based binding assay, W487R mutant", "conditions": "W487R mutant (data not shown)", "protocol": "as §2, §3"}, "[10]": {"target": "T6, I69E mutant yeast BC domain (Saccharomyces cerevisiae, UniProt Q00955, I69E)", "T6 construct": "Residues 2-581 of yeast ACC were sub-cloned into the pET28a vector; made in house; host or cells: E. coli", "T6 sequence (Q00955 2-581 I69E)": "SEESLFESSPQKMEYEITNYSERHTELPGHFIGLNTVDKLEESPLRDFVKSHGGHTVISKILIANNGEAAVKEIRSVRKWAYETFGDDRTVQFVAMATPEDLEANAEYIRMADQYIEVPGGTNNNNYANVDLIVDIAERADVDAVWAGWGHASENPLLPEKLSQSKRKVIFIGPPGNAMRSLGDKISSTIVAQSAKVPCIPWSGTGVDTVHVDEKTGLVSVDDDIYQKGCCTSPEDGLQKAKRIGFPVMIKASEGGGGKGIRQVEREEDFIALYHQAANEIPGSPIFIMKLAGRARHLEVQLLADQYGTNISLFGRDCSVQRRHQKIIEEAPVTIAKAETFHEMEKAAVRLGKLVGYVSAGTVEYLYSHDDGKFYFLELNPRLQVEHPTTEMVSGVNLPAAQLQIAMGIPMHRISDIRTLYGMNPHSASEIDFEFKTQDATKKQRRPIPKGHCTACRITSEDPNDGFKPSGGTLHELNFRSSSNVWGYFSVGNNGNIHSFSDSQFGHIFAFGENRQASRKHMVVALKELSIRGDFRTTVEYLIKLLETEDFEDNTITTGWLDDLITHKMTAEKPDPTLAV", "test": "fluorescence-based binding assay, I69E mutant", "conditions": "50 nM enzyme", "protocol": "as §2, §3"}, "[11]": {"target": "T6, I69E mutant yeast BC domain", "test": "radioactive binding assay, I69E mutant", "conditions": "up to 60 nM soraphen A, 10 nM protein, read-out: Kd (nM) (radiactive assay)", "protocol": "as §1"}, "bacterial BC subunits": {"test_system": "bacterial BC subunits", "conditions": "literature; cited from earlier work"}, "BC domain of human ACC1": {"target": "T7, BC domain of human ACC1 (Homo sapiens, UniProt Q13085)", "T7 construct": "the BC domains of human ACC1 and ACC2", "test": "binding to BC domain of human ACC1 (unpublished results)"}, "[12]": {"target": "T8, E477R mutant yeast BC domain (Saccharomyces cerevisiae, UniProt Q00955, E477R)", "T8 construct": "Residues 2-581 of yeast ACC were sub-cloned into the pET28a vector; made in house; host or cells: E. coli", "T8 sequence (Q00955 2-581 E477R)": "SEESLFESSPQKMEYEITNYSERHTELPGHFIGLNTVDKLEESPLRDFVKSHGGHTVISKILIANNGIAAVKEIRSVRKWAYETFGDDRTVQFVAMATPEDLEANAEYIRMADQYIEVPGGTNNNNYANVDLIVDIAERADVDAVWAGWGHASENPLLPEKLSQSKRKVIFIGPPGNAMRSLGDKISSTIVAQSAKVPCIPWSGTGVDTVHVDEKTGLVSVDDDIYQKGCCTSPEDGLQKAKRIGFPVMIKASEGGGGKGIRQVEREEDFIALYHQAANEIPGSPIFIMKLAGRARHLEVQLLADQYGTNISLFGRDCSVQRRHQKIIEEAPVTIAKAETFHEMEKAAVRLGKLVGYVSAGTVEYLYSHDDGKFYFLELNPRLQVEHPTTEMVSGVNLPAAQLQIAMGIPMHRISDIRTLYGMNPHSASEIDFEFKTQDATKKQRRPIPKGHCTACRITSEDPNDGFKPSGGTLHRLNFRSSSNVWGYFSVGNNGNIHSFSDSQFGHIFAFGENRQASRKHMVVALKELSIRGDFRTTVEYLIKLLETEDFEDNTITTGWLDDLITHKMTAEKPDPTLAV", "test": "fluorescence-based binding assay, E477R mutant", "conditions": "50 nM enzyme", "protocol": "as §2, §3"}, "[13]": {"target": "yeast ACC Ser77 to Tyr mutant (Saccharomyces cerevisiae, UniProt Q00955, S77Y)", "conditions": "yeast ACC with Ser77 mutated to Tyr, literature; cited from earlier work"}, "[14]": {"target": "T9, S77Y mutant yeast BC domain (Saccharomyces cerevisiae, UniProt Q00955, S77Y)", "T9 construct": "Residues 2-581 of yeast ACC were sub-cloned into the pET28a vector; made in house; host or cells: E. coli", "test": "radioactive binding assay, S77Y mutant", "conditions": "up to 60 nM soraphen A, 10 nM protein, read-out: Kd (nM) (radiactive assay)", "protocol": "as §1"}, "[15]": {"target": "T4, Wild-type yeast BC domain", "test": "native gel electrophoresis assay, wild-type BC domain", "conditions": "12% native gel", "protocol": "(§4) FIG. 7. […] Schematic drawing of the dimer of E. coli BC subunit in complex with ATP (Thoden et al., supra 2000). The dimer axis is indicated with the magenta oval. […] (B). Native gel (12%) showing the electrophoretic mobility of wild-type and K73R mutant of yeast BC domain in the absence or presence of soraphen. […] Each lane was loaded with 20 μg of protein in 10 μl.\n(§5) To obtain experimental evidence for the effects of soraphen A on the oligomerization state of BC domains, we examined the mobility of the yeast BC domain in a native gel electrophoresis assay."}, "[16]": {"target": "T8, E477R mutant yeast BC domain", "test": "radioactive binding assay, E477R mutant", "conditions": "read-out: Kd (nM) (radiactive assay)", "protocol": "as §1"}, "[17]": {"target": "BC domain of eukaryotic ACCs", "conditions": "literature; cited from earlier work"}, "[18]": {"target": "T10, active site of yeast BC domain (Saccharomyces cerevisiae, UniProt Q00955)", "T10 construct": "Residues 2-581 of yeast ACC were sub-cloned into the pET28a vector; made in house; host or cells: E. coli BL21(DE3) Rosetta", "test": "binding of fluorescent ATP analog (Mant-ATP) to active site", "conditions": "preliminary experiments, unpublished data"}, "[19]": {"target": "T11, K73R mutant of the BC domain (Saccharomyces cerevisiae, UniProt Q00955, K73R)", "T11 construct": "Residues 2-581 of yeast ACC were sub-cloned into the pET28a vector; made in house; host or cells: E. coli", "T11 sequence (Q00955 2-581 K73R)": "as the sequence (Q00955 2-581 K73R) above", "test": "native gel electrophoresis assay, K73R mutant", "conditions": "K73R mutant of yeast BC domain, 12% native gel", "protocol": "as §4, §5"}, "BC domain of human ACC2": {"target": "T12, BC domain of human ACC2 (Homo sapiens, UniProt O00763)", "T12 construct": "the BC domains of human ACC1 and ACC2", "test": "binding to BC domain of human ACC2 (unpublished results)"}, "[20]": {"target": "T1, F510I mutant yeast BC domain", "test": "fluorescence-based binding assay, F510I mutant", "protocol": "as §2, §3"}, "[21]": {"target": "K73R mutation of yeast ACC (Saccharomyces cerevisiae, UniProt Q00955, K73R)", "conditions": "cited from earlier work"}, "[22]": {"target": "T5, W487R mutant yeast BC domain", "test": "radioactive binding assay, W487R mutant", "conditions": "up to 60 nM soraphen A, 10 nM protein, read-out: Kd (nM) (radiactive assay)", "protocol": "as §1"}}, "data": [{"compound": "soraphen F", "values": [{"measurement": "activity relative to soraphen A", "setting": "[1]", "result": "moderate loss of activity"}]}, {"compound": "CO[C@H]1CCCC[C@@H](c2ccccc2)OC(=O)[C@@H](C)[C@@]2(O)O[C@H]([C@@H](C)[C@H](O)[C@H]2OC)[C@@H](C)/C=C/[C@H]1OC", "note": "[soraphen A]", "values": [{"measurement": "Kd", "setting": "[2]", "result": "5.7 ± 1", "unit": "nM"}, {"measurement": "Kd", "setting": "[3]", "result": "55 ± 4", "unit": "nM"}, {"measurement": "Kd", "setting": "[4]", "result": "> 60", "unit": "nM"}, {"measurement": "mode of inhibition with respect to the substrates of ACC", "setting": "ACC", "result": "noncompetitive"}, {"measurement": "Kd", "setting": "[5]", "result": "2 ± 0.9", "unit": "nM"}, {"measurement": "Kd (in words)", "setting": "[6]; K73R mutant", "result": "micromolar range"}, {"measurement": "loss in affinity for soraphen", "setting": "[6]; K73R mutant versus wild-type", "result": 500, "unit": "fold"}, {"measurement": "Kd", "setting": "[6]; K73R yeast BC domain, 50 nM enzyme", "result": "2010 ± 174", "unit": "nM"}, {"measurement": "Kd", "setting": "[7]", "result": "3.9 ± 0.7", "unit": "nM"}, {"measurement": "Kd", "setting": "[8]", "result": "2.7 ± 0.4", "unit": "nM"}, {"measurement": "fluorescence change in the presence of soraphen", "setting": "[9]", "result": "little fluorescence change"}, {"measurement": "Kd", "setting": "[10]", "result": "104 ± 18", "unit": "nM"}, {"measurement": "Kd", "setting": "[11]", "result": "> 60", "unit": "nM"}, {"measurement": "effect on bacterial BC subunits", "setting": "bacterial BC subunits", "result": "no effect"}, {"measurement": "Kd", "setting": "BC domain of human ACC1", "result": "~1", "unit": "nM"}, {"measurement": "Kd", "setting": "[12]", "result": "274 ± 30", "unit": "nM"}, {"measurement": "sensitivity of the enzyme to soraphen A", "setting": "[13]", "result": "insensitive"}, {"measurement": "Kd", "setting": "[14]", "result": "> 60", "unit": "nM"}, {"measurement": "electrophoretic mobility in native gel in the presence of soraphen A", "setting": "[15]", "result": "a sharp band is observed, with the fastest migrating speed"}, {"measurement": "Kd", "setting": "[16]", "result": "24.7 ± 10.4", "unit": "nM"}, {"measurement": "Kd", "setting": "[17]", "result": "~1", "unit": "nM"}, {"measurement": "interference with the binding of Mant-ATP to the active site", "setting": "[18]", "result": "does not interfere"}, {"measurement": "electrophoretic mobility in native gel in the presence of soraphen A", "setting": "[19]", "result": "not affected"}, {"measurement": "Kd", "setting": "BC domain of human ACC2", "result": "~1", "unit": "nM"}, {"measurement": "impact on the affinity for soraphen", "setting": "[20]; F510I mutation versus wild-type", "result": "minor impact"}, {"measurement": "Kd", "setting": "[20]; F510I yeast BC domain, 50 nM enzyme", "result": "10.6 ± 4.8", "unit": "nM"}, {"measurement": "resistance to soraphen A", "setting": "[21]", "result": "resistance"}, {"measurement": "Kd", "setting": "[22]", "result": "> 60", "unit": "nM"}]}]}
